Measurements: patent US20260297080A1, “BICYCLIC COMPOUNDS AS CDK INHIBITORS” (BeOne Medicines I GmbH, priority 2022, published 2026)

How the values were obtained:
[1] = biological target: CDK2/Cyclin E1 (Homo sapiens, UniProt P24941); experiment: CDK2/Cyclin E1 Biochemical Assay (TR-FRET), 0.060 mM ATP; conditions: 0.15 μM Rb (Ser780)-biotin substrate, pH7.0, 60 min preincubation, 120 min reaction, room temperature
Outline: (§1)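 Phosphorylation of a biotin-tagged Rb Ser780 peptide (0.15 μM) is measured by time-resolved FRET between a europium-labelled phospho-specific antibody and streptavidin-XL665. Compound (0–10 μM) sits with enzyme 60 min first; the kinase reaction then proceeds 120 min at room temperature, pH 7.0.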

[2] = biological target: CDK1/Cyclin B1 (Homo sapiens, UniProt P06493); experiment: CDK1/Cyclin B1 Biochemical Assay (TR-FRET), 0.015 mM ATP; conditions: 0.15 μM Rb (Ser780)-biotin substrate, pH7.0, 60 min preincubation, 120 min reaction, room temperature
Outline: as §1

Chain of CDK1/Cyclin B1 (P06493 whole entry): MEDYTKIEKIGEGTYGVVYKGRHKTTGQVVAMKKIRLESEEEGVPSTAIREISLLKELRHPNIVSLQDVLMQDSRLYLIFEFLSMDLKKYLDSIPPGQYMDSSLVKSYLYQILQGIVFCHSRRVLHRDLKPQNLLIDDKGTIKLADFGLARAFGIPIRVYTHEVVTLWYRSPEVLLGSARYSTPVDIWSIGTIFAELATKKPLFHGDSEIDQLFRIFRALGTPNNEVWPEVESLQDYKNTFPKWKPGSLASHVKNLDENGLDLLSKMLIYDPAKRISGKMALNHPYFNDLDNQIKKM
Chain of CDK1/Cyclin B1 (P14635 whole entry partner): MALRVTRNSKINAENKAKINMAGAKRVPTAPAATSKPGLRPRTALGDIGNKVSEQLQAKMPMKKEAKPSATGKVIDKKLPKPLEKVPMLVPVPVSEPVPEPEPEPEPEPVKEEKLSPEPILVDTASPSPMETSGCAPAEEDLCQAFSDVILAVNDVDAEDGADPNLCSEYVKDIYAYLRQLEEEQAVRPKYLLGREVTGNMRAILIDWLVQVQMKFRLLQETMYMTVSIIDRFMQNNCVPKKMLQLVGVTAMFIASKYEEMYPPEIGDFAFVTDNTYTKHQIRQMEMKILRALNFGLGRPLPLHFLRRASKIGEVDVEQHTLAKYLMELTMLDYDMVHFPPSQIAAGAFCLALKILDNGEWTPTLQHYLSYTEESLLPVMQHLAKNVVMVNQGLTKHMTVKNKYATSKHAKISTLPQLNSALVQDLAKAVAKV

| Structure (SMILES) | IC50 [1] [µM] | IC50 [2] [µM] |
| --- | --- | --- |
| COCC(C)(C)NC(=O)O[C@H]1CC[C@@H](c2cc(Nc3ccc4c(c3F)CS(=O)(=O)N4C)n[nH]2)C1 (relative stereo) [Example 377, cis-3-(3-((4-fluoro-1-methyl-2,2-dioxido-1,3-dihydrobenzo[c]isothiazol-5-yl)amino)-1H-pyrazol-5-yl)cyclopentyl(1-methoxy-2-methylpropan-2-yl)carbamate] | 0.0011 | 0.045 |
| CC(C)NC(=O)O[C@H]1CO[C@@H](c2cc(Nc3ccc4c(c3F)CNS4(=O)=O)n[nH]2)C1 (relative stereo) [Example 378, 5-(3-((4-fluoro-1,1-dioxido-2,3-dihydrobenzo[d]isothiazol-5-yl)amino)-1H-pyrazol-5-yl)tetrahydrofuran-3-yl isopropylcarbamate] | 0.0093 | 0.496 |
| COCC(C)(C)NC(=O)O[C@H]1CC[C@@H](c2cc(Nc3ccc4c(c3F)CN(C)S4(=O)=O)n[nH]2)C1 (relative stereo) [Example 379, cis-3-(3-((4-fluoro-2-methyl-1,1-dioxido-2,3-dihydrobenzo[d]isothiazol-5-yl)amino)-1H-pyrazol-5-yl)cyclopentyl(1-methoxy-2-methylpropan-2-yl)carbamate] | 0.0045 | 0.23 |
| O=C(O[C@H]1CC[C@@H](c2cc(Nc3ccc4c(c3)CS(=O)(=O)N4)n[nH]2)C1)N1CCOCC1 (relative stereo) [Example 382, cis-3-(3-((2,2-dioxido-1,3-dihydrobenzo[c]isothiazol-5-yl)amino)-1H-pyrazol-5-yl)cyclopentyl morpholine-4-carboxylate] | 0.0097 | 0.214 |
| O=C(NC1(CO)CCC1)O[C@H]1CC[C@@H](c2cc(Nc3ccc4c(c3F)CNS4(=O)=O)n[nH]2)C1 (relative stereo) [Example 385, cis-3-(3-((4-fluoro-1,1-dioxido-2,3-dihydrobenzo[d]isothiazol-5-yl)amino)-1H-pyrazol-5-yl)cyclopentyl(1-(hydroxymethyl)cyclobutyl)carbamate] | 0.0019 | 0.138 |
| CN1c2ccc(Nc3cc([C@@H]4CC[C@H](OC(=O)NC5(CO)CCC5)C4)[nH]n3)cc2CS1(=O)=O (relative stereo) [Example 386, cis-3-(3-((1-methyl-2,2-dioxido-1,3-dihydrobenzo[c]isothiazol-5-yl)amino)-1H-pyrazol-5-yl)cyclopentyl(1-(hydroxymethyl)cyclobutyl)carbamate] | 0.001 | 0.028 |
| CC(C)NC(=O)O[C@H]1CC[C@@H](c2cc(Nc3ccc4c(c3F)CS(=O)(=O)N4CCCO)n[nH]2)C1 (relative stereo) [Example 389, cis-3-(3-((4-fluoro-1-(3-hydroxypropyl)-2,2-dioxido-1,3-dihydrobenzo[c]isothiazol-5-yl)amino)-1H-pyrazol-5-yl)cyclopentyl isopropylcarbamate] | 0.0013 | 0.074 |
| CC1(NC(=O)O[C@H]2CC[C@@H](c3cc(Nc4ccc5c(c4F)CS(=O)(=O)N5CCO)n[nH]3)C2)COC1 (relative stereo) [Example 390, cis-3-(3-((4-fluoro-1-(2-hydroxyethyl)-2,2-dioxido-1,3-dihydrobenzo[c]isothiazol-5-yl)amino)-1H-pyrazol-5-yl)cyclopentyl(3-methyloxetan-3-yl)carbamate] | 0.0025 | 0.236 |
| CC1(NC(=O)O[C@H]2CC[C@@H](c3cc(Nc4ccc5c(c4)CS(=O)(=O)N5)n[nH]3)C2)CCOC1 (relative stereo) [Example 392, cis-3-(3-((2,2-dioxido-1,3-dihydrobenzo[c]isothiazol-5-yl)amino)-1H-pyrazol-5-yl)cyclopentyl(3-methyltetrahydrofuran-3-yl)carbamate] | 0.0011 | 0.01 |
| CC1(NC(=O)O[C@H]2CC[C@@H](c3cc(Nc4ccc5c(c4F)CS(=O)(=O)N5CCO)n[nH]3)C2)CCOC1 (relative stereo) [Example 393, cis-3-(3-((4-fluoro-1-(2-hydroxyethyl)-2,2-dioxido-1,3-dihydrobenzo[c]isothiazol-5-yl)amino)-1H-pyrazol-5-yl)cyclopentyl(3-methyltetrahydrofuran-3-yl)carbamate] | 0.0019 | 0.119 |
| COCC(C)(C)NC(=O)O[C@H]1CC[C@@H](c2cc(Nc3ccc4c(c3F)CS(=O)(=O)N4CCO)n[nH]2)C1 (relative stereo) [Example 394, cis-3-(3-((4-fluoro-1-(2-hydroxyethyl)-2,2-dioxido-1,3-dihydrobenzo[c]isothiazol-5-yl)amino)-1H-pyrazol-5-yl)cyclopentyl(1-methoxy-2-methylpropan-2-yl)carbamate] | 0.0011 | 0.045 |

Results, then the compound that gave them:

| IC50 [1] [µM] | IC50 [2] [µM] | Structure (SMILES) |
| --- | --- | --- |
| 0.0097 | 0.76 | Cc1nc2c(cc1Nc1cc([C@@H]3CC[C@H](OC(=O)NC(C)C)C3)[nH]n1)CNS2(=O)=O (relative stereo) [Example 396, cis-3-(3-((6-methyl-1,1-dioxido-2,3-dihydroisothiazolo[5,4-b]pyridin-5-yl)amino)-1H-pyrazol-5-yl)cyclopentyl isopropylcarbamate] |
| 0.0049 | 0.053 | CC1(NC(=O)O[C@H]2CC[C@@H](c3cc(Nc4ccc5c(c4)CS(=O)(=O)N5)n[nH]3)C2)CCOCC1 (relative stereo) [Example 398, cis-3-(3-((2,2-dioxido-1,3-dihydrobenzo[c]isothiazol-5-yl)amino)-1H-pyrazol-5-yl)cyclopentyl(4-methyltetrahydro-2H-pyran-4-yl)carbamate] |
| 0.0021 | 0.105 | COCC(C)(C)NC(=O)O[C@H]1CC[C@@H](c2cc(Nc3ccc4c(c3F)CS(=O)(=O)N4C3CC3)n[nH]2)C1 (relative stereo) [Example 401, cis-3-(3-((1-cyclopropyl-4-fluoro-2,2-dioxido-1,3-dihydrobenzo[c]isothiazol-5-yl)amino)-1H-pyrazol-5-yl)cyclopentyl(1-methoxy-2-methylpropan-2-yl)carbamate] |
| 0.0051 | 0.101 | CC1(NC(=O)O[C@H]2CC[C@@H](c3cc(Nc4ccc5c(c4F)CS(=O)(=O)N5)n[nH]3)C2)CCOCC1 (relative stereo) [Example 402, cis-3-(3-((4-fluoro-2,2-dioxido-1,3-dihydrobenzo[c]isothiazol-5-yl)amino)-1H-pyrazol-5-yl)cyclopentyl(4-methyltetrahydro-2H-pyran-4-yl)carbamate] |
| 0.01 | 0.644 | CC(C)NC(=O)O[C@H]1CC[C@@H](c2cc(Nc3ccc4c(c3O)CNS4(=O)=O)n[nH]2)C1 (relative stereo) [Example 405, cis-3-(3-((4-hydroxy-1,1-dioxido-2,3-dihydrobenzo[d]isothiazol-5-yl)amino)-1H-pyrazol-5-yl)cyclopentyl isopropylcarbamate] |
| 0.601 | > 10 | CC(C)NC(=O)O[C@H]1CC[C@@H](c2cc(Nc3c(F)cc4c(c3O)CNS4(=O)=O)n[nH]2)C1 (relative stereo) [Example 406, cis-3-(3-((6-fluoro-4-hydroxy-1,1-dioxido-2,3-dihydrobenzo[d]isothiazol-5-yl)amino)-1H-pyrazol-5-yl)cyclopentyl isopropylcarbamate] |
| 0.0016 | 0.129 | CC1(NC(=O)O[C@H]2CC[C@@H](c3cc(Nc4ccc5c(c4F)CS(=O)(=O)N5CC(F)(F)F)n[nH]3)C2)CCOC1 (relative stereo) [Example 407, cis-3-(3-((4-fluoro-2,2-dioxido-1-(2,2,2-trifluoroethyl)-1,3-dihydrobenzo[c]isothiazol-5-yl)amino)-1H-pyrazol-5-yl)cyclopentyl(3-methyltetrahydrofuran-3-yl)carbamate] |
| 0.035 | 1.1 | O=C(NC1(CO)CCC1)O[C@H]1CC[C@@H](c2cc(Nc3cc4c(cc3F)NS(=O)(=O)C4)n[nH]2)C1 (relative stereo) [Example 408, cis-3-(3-((6-fluoro-2,2-dioxido-1,3-dihydrobenzo[c]isothiazol-5-yl)amino)-1H-pyrazol-5-yl)cyclopentyl(1-(hydroxymethyl)cyclobutyl)carbamate] |
| 0.0058 | 0.21 | CC1(NC(=O)O[C@H]2CC[C@@H](c3cc(Nc4ccc5c(c4F)CS(=O)(=O)N5CC(F)(F)F)n[nH]3)C2)COC1 (relative stereo) [Example 409, cis-3-(3-((4-fluoro-2,2-dioxido-1-(2,2,2-trifluoroethyl)-1,3-dihydrobenzo[c]isothiazol-5-yl)amino)-1H-pyrazol-5-yl)cyclopentyl(3-methyloxetan-3-yl)carbamate] |
| 0.0018 | 0.147 | CC(CC(F)(F)F)NC(=O)O[C@H]1CC[C@@H](c2cc(Nc3cc4c(cc3F)S(=O)(=O)NC4)n[nH]2)C1 (relative stereo) [Example 412, cis-3-(3-((6-fluoro-1,1-dioxido-2,3-dihydrobenzo[d]isothiazol-5-yl)amino)-1H-pyrazol-5-yl)cyclopentyl(4,4,4-trifluorobutan-2-yl)carbamate] |
| 0.0035 | 0.412 | CC(NC(=O)O[C@H]1CC[C@@H](c2cc(Nc3cc4c(cc3F)S(=O)(=O)NC4)n[nH]2)C1)C1CC1 (relative stereo) [Example 413, cis-3-(3-((6-fluoro-1,1-dioxido-2,3-dihydrobenzo[d]isothiazol-5-yl)amino)-1H-pyrazol-5-yl)cyclopentyl(1-cyclopropylethyl)carbamate] |
| 0.0073 | 0.232 | O=C(NCC1CC1)O[C@H]1CC[C@@H](c2cc(Nc3ccc4c(c3F)CNS4(=O)=O)n[nH]2)C1 (relative stereo) [Example 414, cis-3-(3-((4-fluoro-1,1-dioxido-2,3-dihydrobenzo[d]isothiazol-5-yl)amino)-1H-pyrazol-5-yl)cyclopentyl(cyclopropylmethyl)carbamate] |
